Measurements published in US9221834B2 (Merck Sharp & Dohme Corp., priority 2010, dated 2015).

Molecular target: T1, recombinant CETP (rCETP) (Homo sapiens, UniProt P11597)
T1 sequence (P11597 18-493): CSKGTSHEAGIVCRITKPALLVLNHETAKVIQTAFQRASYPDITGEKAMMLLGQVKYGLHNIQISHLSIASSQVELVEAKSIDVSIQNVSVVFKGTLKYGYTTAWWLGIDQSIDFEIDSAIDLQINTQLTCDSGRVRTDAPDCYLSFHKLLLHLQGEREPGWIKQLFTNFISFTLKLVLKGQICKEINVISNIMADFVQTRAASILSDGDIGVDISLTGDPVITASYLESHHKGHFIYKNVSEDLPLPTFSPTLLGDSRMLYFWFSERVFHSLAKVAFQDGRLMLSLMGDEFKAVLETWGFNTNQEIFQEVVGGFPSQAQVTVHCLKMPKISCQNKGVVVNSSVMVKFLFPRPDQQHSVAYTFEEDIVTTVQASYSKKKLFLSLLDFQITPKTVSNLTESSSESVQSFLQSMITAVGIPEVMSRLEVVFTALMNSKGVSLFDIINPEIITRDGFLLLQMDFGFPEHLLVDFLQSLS
Test: RTA assay using recombinant CETP (2% RTA)
Assay type: biochemical
Details: RTA assay in 2% human serum; read-out: IC50
Experimental: In Vitro Radioactive Assays of CETP-Catalyzed CE and TG Transfer (RTA Assay)
Reagents and sources are: [3H] cholesteryl oleate (GE #TRK.886), [3H]
Both assays measure the transfer of [3H] cholesteryl oleate or [3H]triolein from exogenous LDL to HDL.
After a brief vortex, the solution is sonicated until clear and mixed with 20 mL of fresh human serum. The mixture is incubated overnight at 37° C. […] Once isolated the particles are dialyzed 3× in CETP buffer (50 mM Tris, pH 7.4, 100 mM NaCl, 1 mM EDTA). Human HDL is purchased from Intracel and used as the acceptor particles.
Transfer assays are performed in a 96-well v-bottom polypropylene plate. […] 1 μL of each test compound diluted in DMSO is added to 47 μL of assay cocktail per well and incubated at 37° C. for 1 hour. To initiate the transfer reaction, 2 μL radiolabeled LDL is added. After an additional 60 min of incubation at 37° C., the transfer action is terminated by precipitation of LDL with an equal volume of 20% W/V PEG 8000. The plates are centrifuged at 2000 rpm for 30 minutes at 4° C. A 40 μL aliquot of the HDL-containing supernatant is transferred to a Packard Optiplate with 200 μL of MicroScint 20. After mixing, plates are counted by liquid scintillation. Counts present in the supernatant for blanks (wells containing only HDL acceptor, CETP buffer and DMSO) are subtracted from those containing test compounds and used to correct for non-specific transfer.
Comparison of the counts of samples with inhibitors to an uninhibited (DMSO only) positive control yield a percent inhibition. A plot of percent inhibition vs. log of inhibitor concentration, fit to a Sigmoidal 4 parameter equation is used to calculate IC50.

SMILES: COC(=O)[C@@H]1CC[C@@H](c2ccc(OC)c(-c3c(C)cc(N4CCC4)nc3CN3C(=O)O[C@H](c4cc(C(F)(F)F)cc(C(F)(F)F)c4)[C@@H]3C)c2)C1 (mixture of isomers) [Example 216]
- IC50: 9 nM

SMILES: COc1ccc(C2CCC(O)C2)cc1-c1ccc(N2CCC2)nc1CN1C(=O)O[C@H](c2cc(C(F)(F)F)cc(C(F)(F)F)c2)[C@@H]1C (mixture of isomers) [Example 262]
- IC50: 3 nM

SMILES: COc1ccc(C2CCC(O)C2)cc1-c1ccc(N2CCC2)nc1CN1C(=O)O[C@H](c2cc(C(F)(F)F)cc(C(F)(F)F)c2)[C@@H]1C (mixture of isomers) [Example 263]
- IC50: 5 nM

SMILES: COC(=O)[C@@H]1CC[C@@H](c2ccc(OC)c(-c3ccc(N4CCC4)nc3CN3C(=O)O[C@H](c4cc(C(F)(F)F)cc(C(F)(F)F)c4)[C@@H]3C)c2)C1 (racemic) [Example 214]
- IC50: 8 nM

SMILES: COC(=O)CCc1ccc(OC)c(-c2c(C)cc(N3CCC3)nc2CN2C(=O)O[C@H](c3cc(C(F)(F)F)cc(C(F)(F)F)c3)[C@@H]2C)c1 (single isomer, unassigned) [Example 39]
- IC50: 3 nM

SMILES: COc1ccc([C@H]2C[C@@H](C(=O)OC)C2)cc1-c1c(C)cc(N2CCC2)nc1CN1C(=O)O[C@H](c2cc(C(F)(F)F)cc(C(F)(F)F)c2)[C@@H]1C (single isomer, unassigned) [Example 41]
- IC50: 4 nM

SMILES: COc1ccc([C@H]2C[C@@H](C(=O)OC)C2)cc1-c1c(C)cc(N2CCC2)nc1CN1C(=O)O[C@H](c2cc(C(F)(F)F)cc(C(F)(F)F)c2)[C@@H]1C (single isomer, unassigned) [Example 42]
- IC50: 102 nM

SMILES: COC(=O)[C@H]1CC[C@@H](c2ccc(OC)c(-c3ccc(N4CCC4)nc3CN3C(=O)O[C@H](c4cc(C(F)(F)F)cc(C(F)(F)F)c4)[C@@H]3C)c2)C1 (single isomer, unassigned) [Example 217]
- IC50: 19 nM

SMILES: COC(=O)[C@H]1CC[C@@H](c2ccc(OC)c(-c3ccc(N4CCC4)nc3CN3C(=O)O[C@H](c4cc(C(F)(F)F)cc(C(F)(F)F)c4)[C@@H]3C)c2)C1 (single isomer, unassigned) [Example 218]
- IC50: 12 nM

SMILES: COc1ccc([C@@H]2CC[C@@H](C(=O)O)C2)cc1-c1ccc(N2CCC2)nc1CN1C(=O)O[C@H](c2cc(C(F)(F)F)cc(C(F)(F)F)c2)[C@@H]1C (single isomer, unassigned) [Example 238]
- IC50: 5 nM

SMILES: COc1ccc([C@@H]2CC[C@@H](C(=O)O)C2)cc1-c1ccc(N2CCC2)nc1CN1C(=O)O[C@H](c2cc(C(F)(F)F)cc(C(F)(F)F)c2)[C@@H]1C (single isomer, unassigned) [Example 239]
- IC50: 7 nM

SMILES: COc1ccc([C@@H]2CC[C@H](C(=O)O)C2)cc1-c1ccc(N2CCC2)nc1CN1C(=O)O[C@H](c2cc(C(F)(F)F)cc(C(F)(F)F)c2)[C@@H]1C (single isomer, unassigned) [Example 245]
- IC50: 9 nM

SMILES: COc1ccc([C@@H]2CC[C@H](C(=O)O)C2)cc1-c1ccc(N2CCC2)nc1CN1C(=O)O[C@H](c2cc(C(F)(F)F)cc(C(F)(F)F)c2)[C@@H]1C (single isomer, unassigned) [Example 246]
- IC50: 12 nM

SMILES: COC(=O)CCc1ccc(OC)c(-c2ccc(N3CCC3)nc2CN2C(=O)O[C@H](c3cc(C(F)(F)F)cc(C(F)(F)F)c3)[C@@H]2C)c1 [Example 1, Methyl 3-{3-[6-azetidin-1-yl-2-({(4S,5R)-5-[3,5-bis(trifluoromethyl)phenyl]-4-methyl-2-oxo-1,3-oxazolidin-3-yl}methy)pyridin-3-yl]-4-methoxyphenyl}propanoate]
- IC50: 8 nM

SMILES: COC(=O)CCc1ccc(OC)c(-c2ccc(N3CCCC3)nc2CN2C(=O)O[C@H](c3cc(C(F)(F)F)cc(C(F)(F)F)c3)[C@@H]2C)c1 [Example 2]
- IC50: 33 nM

SMILES: CCOC(=O)[C@@H]1C[C@H]1c1ccc(OC)c(-c2ccc(N3CCC3)nc2CN2C(=O)O[C@H](c3cc(C(F)(F)F)cc(C(F)(F)F)c3)[C@@H]2C)c1 [Example 3]
- IC50: 6 nM

SMILES: CCOC(=O)[C@H]1C[C@@H]1c1ccc(OC)c(-c2ccc(N3CCC3)nc2CN2C(=O)O[C@H](c3cc(C(F)(F)F)cc(C(F)(F)F)c3)[C@@H]2C)c1 [Example 4]
- IC50: 6 nM

SMILES: COC(=O)CCc1ccc(Cl)c(-c2ccc(N3CCC3)nc2CN2C(=O)O[C@H](c3cc(C(F)(F)F)cc(C(F)(F)F)c3)[C@@H]2C)c1 [Example 5]
- IC50: 7 nM

SMILES: CCOC(=O)CC1CCc2cc(OC)c(-c3ccc(N4CCC4)nc3CN3C(=O)O[C@H](c4cc(C(F)(F)F)cc(C(F)(F)F)c4)[C@@H]3C)cc21 (stereo partly drawn) [Example 6]
- IC50: 7 nM

SMILES: COC(=O)CC(C)(C)c1ccc(OC)c(-c2ccc(N3CCC3)nc2CN2C(=O)O[C@H](c3cc(C(F)(F)F)cc(C(F)(F)F)c3)[C@@H]2C)c1 [Example 7]
- IC50: 12 nM

SMILES: COC(=O)Cc1ccc(OC)c(-c2ccc(N3CCC3)nc2CN2C(=O)O[C@H](c3cc(C(F)(F)F)cc(C(F)(F)F)c3)[C@@H]2C)c1 [Example 8]
- IC50: 12 nM

SMILES: COc1ccc([C@H]2CC[C@H](C(=O)OC)CC2)cc1-c1ccc(N2CCC2)nc1CN1C(=O)O[C@H](c2cc(C(F)(F)F)cc(C(F)(F)F)c2)[C@@H]1C [Example 9]
- IC50: 15 nM

SMILES: COc1ccc(CC(C)(C)C(=O)OC(C)(C)C)cc1-c1ccc(N2CCC2)nc1CN1C(=O)O[C@H](c2cc(C(F)(F)F)cc(C(F)(F)F)c2)[C@@H]1C [Example 10]
- IC50: 63 nM

SMILES: COC(=O)CCc1ccc(OC)c(-c2ccc(N3CCC3)nc2CN2C(=O)O[C@H](c3ccc(F)c(F)c3)[C@@H]2C)c1 [Example 11]
- IC50: 186 nM

SMILES: COC(=O)CC(C)(C)c1ccc(OC)c(-c2ccc(N3CCC3)nc2CN2C(=O)O[C@H](c3ccc(F)c(F)c3)[C@@H]2C)c1 [Example 12]
- IC50: 227 nM

SMILES: CCOC(=O)[C@@H]1C[C@H]1c1ccc(OC)c(-c2ccc(N3CCC3)nc2CN2C(=O)O[C@H](c3ccc(F)c(F)c3)[C@@H]2C)c1 [Example 13]
- IC50: 498 nM

SMILES: COC(=O)CCc1ccc(OC)c(-c2ccc(N3CCC3)nc2CN2C(=O)O[C@H](c3cc(F)cc(F)c3)[C@@H]2C)c1 [Example 14]
- IC50: 87 nM

SMILES: COC(=O)CC(C)(C)c1ccc(OC)c(-c2ccc(N3CCC3)nc2CN2C(=O)O[C@H](c3cc(F)cc(F)c3)[C@@H]2C)c1 [Example 15]
- IC50: 159 nM

SMILES: CCOC(=O)[C@@H]1C[C@H]1c1ccc(OC)c(-c2ccc(N3CCC3)nc2CN2C(=O)O[C@H](c3cc(F)cc(F)c3)[C@@H]2C)c1 [Example 16]
- IC50: 94 nM

SMILES: CCOC(=O)[C@H]1C[C@@H]1c1ccc(OC)c(-c2ccc(N3CCC3)nc2CN2C(=O)O[C@H](c3cc(F)cc(F)c3)[C@@H]2C)c1 [Example 17]
- IC50: 181 nM

SMILES: CCOC(=O)[C@@H]1C[C@@H]1c1ccc(OC)c(-c2ccc(N3CCC3)nc2CN2C(=O)O[C@H](c3cc(F)cc(F)c3)[C@@H]2C)c1 [Example 18]
- IC50: 62 nM

SMILES: COc1ccc([C@H]2CC[C@H](C(=O)OC)CC2)cc1-c1ccc(N2CCC2)nc1CN1C(=O)O[C@H](c2cc(F)cc(F)c2)[C@@H]1C [Example 19]
- IC50: 381 nM

SMILES: CCOC(=O)C[C@@H]1CCc2cc(OC)c(-c3ccc(N4CCC4)nc3CN3C(=O)O[C@H](c4cc(F)cc(F)c4)[C@@H]3C)cc21 [Example 20]
- IC50: 96 nM

SMILES: COC(=O)c1ccc(-c2cc(-c3ccc(N4CCC4)nc3CN3C(=O)O[C@H](c4cc(F)cc(F)c4)[C@@H]3C)c(OC)cc2F)c(C)c1 [Example 21]
- IC50: 22 nM

SMILES: CCOC(=O)[C@@H]1C[C@H]1c1ccc(CC)c(-c2ccc(N3CCC3)nc2CN2C(=O)O[C@H](c3cc(C(F)(F)F)cc(C(F)(F)F)c3)[C@@H]2C)c1 [Example 22]
- IC50: 11 nM

SMILES: COc1ccc([C@H]2C[C@@H](C(=O)OC)C2)cc1-c1ccc(N2CCC2)nc1CN1C(=O)O[C@H](c2cc(C(F)(F)F)cc(C(F)(F)F)c2)[C@@H]1C [Example 23]
- IC50: 18 nM

SMILES: COc1ccc([C@H]2C[C@H](C(=O)OC)C2)cc1-c1ccc(N2CCC2)nc1CN1C(=O)O[C@H](c2cc(C(F)(F)F)cc(C(F)(F)F)c2)[C@@H]1C [Example 24]
- IC50: 2 nM

SMILES: COC(=O)C[C@H]1C[C@@H](c2ccc(OC)c(-c3ccc(N4CCC4)nc3CN3C(=O)O[C@H](c4cc(C(F)(F)F)cc(C(F)(F)F)c4)[C@@H]3C)c2)C1 [Example 25]
- IC50: 14 nM

SMILES: COC(=O)C[C@H]1C[C@H](c2ccc(OC)c(-c3ccc(N4CCC4)nc3CN3C(=O)O[C@H](c4cc(C(F)(F)F)cc(C(F)(F)F)c4)[C@@H]3C)c2)C1 [Example 26]
- IC50: 7 nM
